One experiment concerns the target T1, human AT1R (Homo sapiens, UniProt P30556).
T1 sequence (P30556 1-359): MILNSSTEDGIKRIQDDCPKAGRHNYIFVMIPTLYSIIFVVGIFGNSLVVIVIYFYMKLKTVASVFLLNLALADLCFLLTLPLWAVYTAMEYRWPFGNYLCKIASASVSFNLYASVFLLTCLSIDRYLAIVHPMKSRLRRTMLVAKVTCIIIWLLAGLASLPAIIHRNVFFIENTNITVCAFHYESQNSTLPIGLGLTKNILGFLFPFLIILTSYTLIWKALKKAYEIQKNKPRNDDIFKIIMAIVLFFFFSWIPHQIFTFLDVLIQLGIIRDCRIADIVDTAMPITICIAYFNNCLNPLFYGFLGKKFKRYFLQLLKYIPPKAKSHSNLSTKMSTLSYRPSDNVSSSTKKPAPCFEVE
Kind of experiment: beta-arrestin2 recruitment assay (PathHunter), human AT1R. The note with it: for Emax: 1 h, read-out: Span (relative to hAngII); for pEC50: read-out: EC50; for EC50: read-out: pEC50 (converted). It counts as cell-based. The method, then: (§1) The proximal event in β-arrestin function mediated by GPCRs is recruitment to receptors following ligand binding and receptor phosphorylation by GRK's. Thus, the measure of β-arrestin recruitment was used to determine ligand efficacy for β-arrestin function.
(§2) B-arrestin-2 recruitment to the human and rat angiotensin 2 type 1 receptor (human AT1R and rat AT1aR, respectively) was measured with the PathHunter™ μl-arrestin assay (DiscoveRx Corporation, Fremont Calif.). Cells, plasmid(s), and detection reagent(s) were purchased from DiscoveRx, and assays were performed per manufacturer's instructions. Human AT1R and rat AT1aR were cloned into the pCMV-ProLink vector, verified by sequencing, and transfected into PathHunter β-arrestin HEK293 cells. Stably transfected clonal cell lines were selected with Hygromycin and G418. These clonal cell lines were used for all experiments.
(§3) For assays, 4,000-8,000 cells were seeded per well in 384-well microplates “HiBase” small-volume plate in volumes of 20 uL and grown overnight in the incubator (37° C., 5% CO2, saturated humidity). Peptides were dissolved in DMSO to a concentration of 10 mM. Peptides were then further diluted in assay buffer (Hank's balanced salt solution with 20 mM HEPES) to add peptide to the cells to reach final concentrations ranging from 100 μM to 1 pM. Cells were then incubated for 60 minutes at 37° C. in 5% CO2, followed by addition of 2 μL of PathHunter Detection Reagent to each well. The microplates were then incubated at room temperature for 60 minutes, and then luminescence was measured using a PHERAstar Plus microplate reader from BMG Labtech. B-arrestin-2 recruitment to receptors was measured as relative luminescence intensity expressed in arbitrary units.
In general terms: Activated receptors often draw arrestin, which recruitment assays turn into a signal.

The next experiment deals with T2, rat AT1aR (Rattus norvegicus, UniProt P25095).
T2 sequence (P25095 1-359): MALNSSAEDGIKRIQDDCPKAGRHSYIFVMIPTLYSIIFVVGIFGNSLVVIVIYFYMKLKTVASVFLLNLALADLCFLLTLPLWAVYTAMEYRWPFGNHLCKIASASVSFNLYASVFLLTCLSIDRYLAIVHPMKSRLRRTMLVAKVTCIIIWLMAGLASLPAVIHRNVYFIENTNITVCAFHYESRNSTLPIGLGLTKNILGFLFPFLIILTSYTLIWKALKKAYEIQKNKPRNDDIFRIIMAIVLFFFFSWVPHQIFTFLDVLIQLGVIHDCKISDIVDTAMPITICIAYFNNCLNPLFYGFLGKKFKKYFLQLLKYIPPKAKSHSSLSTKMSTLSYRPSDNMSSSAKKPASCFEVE
Kind of experiment: beta-arrestin2 recruitment assay (PathHunter), rat AT1aR. The class given is cell-based. Particulars: for Emax: 1 h, read-out: Span (relative to hAngII); for pEC50: read-out: EC50; for EC50: read-out: pEC50 (converted). The procedure: as §1, §2, §3

pEC50: −log10 of the molar value. Like-named read-outs stand apart in the source and are kept apart here. Where a SMILES comes first, the peptide text is derived from it. Bridges are numbered along the chain shown (N, C = ends). [ ]: non-standard residue; d: D form. The star is where a group is joined. Val(3-OH) = CC(C)(O)[C@H](N)C(=O)O; Tle = CC(C)(C)[C@H](N)C(=O)O; Ac6c = NC1(C(=O)O)CCCCC1; NHCH2tBu = CC(C)(C)CN*; Aib = CC(C)(N)C(=O)O; Sar = CNCC(=O)O Bounds are passed on as bounds.

For the compound `CNCC(=O)N[C@@H](CCCNC(=N)N)C(=O)N[C@H](C(=O)N[C@@H](Cc1ccc(O)cc1)C(=O)N[C@H](C(=O)N[C@@H](Cc1c[nH]cn1)C(=O)N1CCC[C@H]1C(=O)N[C@H](C(=O)O)C(C)C)C(C)(C)C)C(C)C` [SEQ ID NO: 29, Sar-Arg-Val-Tyr-AA02-His-Pro-Val] (H-[Sar]RVY[Tle]HPV-OH), at human AT1R, the Emax is less than 101%; the pEC50 (as a rule, the negative decadic logarithm of the EC50, by convention in mol/L) was less than 8.49; the EC50 is greater than 3.16 nM. At rat AT1aR, the Emax is less than 105%, the pEC50 was less than 8.49 and the EC50 was greater than 3.16 nM.
On to `CNCC(=O)N[C@@H](CCCNC(=N)N)C(=O)N[C@H](C(=O)N[C@@H](Cc1ccc(O)cc1)C(=O)NC1(C(=O)N[C@@H](Cc2c[nH]cn2)C(=O)N2CCC[C@H]2C(=O)NC(C)(C)C(=O)O)CCCCC1)C(C)C` [SEQ ID NO: 35, Sar-Arg-Val-Tyr-cyHex-His-Pro-AA01] (H-[Sar]RVY[Ac6c]HP[Aib]-OH), for which, at human AT1R, the Emax was less than 101%, the pEC50 is less than 8.49 and the EC50 was greater than 3.16 nM. Further, at rat AT1aR, the Emax is less than 105%, the pEC50 was less than 8.49 and the EC50 was greater than 3.16 nM.
As for `CNCC(=O)N[C@@H](CCCNC(=N)N)C(=O)N[C@H](C(=O)N[C@@H](Cc1ccc(O)cc1)C(=O)NC1(C(=O)N[C@@H](Cc2c[nH]cn2)C(=O)N2CCC[C@H]2C(=O)N[C@H](C(=O)O)C(C)(C)O)CCCCC1)C(C)C` [SEQ ID NO: 31, Sar-Arg-Val-Tyr-cyHex-His-Pro-AA03] (H-[Sar]RVY[Ac6c]HP[Val(3-OH)]-OH), on human AT1R, the Emax is less than 101%, the pEC50 is less than 8.49 and the EC50 is greater than 3.16 nM. For the same compound, at rat AT1aR, the Emax was less than 105%, the pEC50 was less than 8.49 and the EC50 is greater than 3.16 nM.
On to `CC[C@H](C)[C@@H]1NC(=O)[C@H](NC(=O)[C@@H](NC(=O)[C@H](CCCNC(=N)N)NC(=O)CNC)C(C)C)CSSC[C@@H](C(=O)N[C@H](C)C(=O)O)NC(=O)[C@H](Cc2c[nH]cn2)NC1=O` [SEQ ID NO: 52, Sar-Arg-Val-D-Cys-Ile-His-Cys-D-Ala] (H-[Sar]RV[dC]IHC[dA]-OH; disulfide 4-7; N-terminus and C-terminus assumed), for which the figures for the Emax on human AT1R and at rat AT1aR were less than 101% and less than 105%, respectively.
Turning to `CNCC(=O)N[C@@H](CCCNC(=N)N)C(=O)N[C@H](C(=O)N[C@@H](Cc1ccc(O)cc1)C(=O)NC1(C(=O)N[C@@H](Cc2c[nH]cn2)C(=O)N2CCC[C@H]2C(=O)NCC(C)(C)C)CCCCC1)C(C)C` [SEQ ID NO: 47, Sar-Arg-Val-Tyr-cyHex-His-Pro-NH-neopentyl] (H-[Sar]RVY[Ac6c]HP-NHCH2tBu), on human AT1R, the Emax is less than 101%, the negative-log EC50 (pEC50) is less than 8.49 and the EC50 was greater than 3.16 nM.
As for `CNCC(=O)N[C@@H](CCCNC(=N)N)C(=O)N[C@H](C(=O)N[C@@H](Cc1ccc(O)cc1)C(=O)NC1(C(=O)N[C@@H](Cc2c[nH]cn2)C(=O)N2CCC[C@H]2C(=O)O)CCCCC1)C(C)C` [SEQ ID NO: 41, Sar-Arg-Val-Tyr-cyHex-His-Pro] (H-[Sar]RVY[Ac6c]HP-OH), at human AT1R, the Emax is less than 101%, the pEC50 was less than 8.49 and the EC50 was greater than 3.16 nM. In addition, on rat AT1aR, the Emax was less than 105%, the pEC50 is less than 8.49 and the EC50 is greater than 3.16 nM.
With `CNCC(=O)N[C@@H](CCCNC(=N)N)C(=O)N[C@H](C(=O)N[C@@H](Cc1ccc(O)cc1)C(=O)NC1(C(=O)N[C@@H](Cc2c[nH]cn2)C(=O)N2CCC[C@H]2C(=O)N[C@@H](CCC(=O)O)C(=O)O)CCCCC1)C(C)C` [SEQ ID NO: 43, Sar-Arg-Val-Tyr-cyHex-His-Pro-Glu] (H-[Sar]RVY[Ac6c]HPE-OH), at human AT1R, the Emax is less than 101%, the pEC50 is less than 8.49 and the EC50 is greater than 3.16 nM. Moreover, at rat AT1aR, the Emax was less than 105%, the pEC50 was less than 8.49 and the EC50 is greater than 3.16 nM.

These data come from patent publication US8946142B2, “Beta-arrestin effectors and compositions and methods of use thereof” (Trevena, Inc., priority 2012, dated 2015).
